This note sets out measurements from patent US7799763B2, “Muscle-strengthening drugs and anti-inflammatory drugs” (Daicho Kikaku Incorporated Company, priority 2002, dated 2010).

Assay [1] deals with patients with walking difficulties, proctoptosia, backaches, limb pains. The assay is described as follows: Tablets of Example 4 administered once a day to aged patients with muscle disorders. It is filed as in vivo, human. The conditions noted are these: single regular dose of drugs admixed with one of scymnol, isoflavone, and cholic acid. An excerpt: In Western medicine, it has been understood that proctoptosia and leg, lumbus and arm aches are attributable only to hematogenous disorders and resultant inflammation at local sites. […] Thus, it can be understood that these disorders are attributed to insufficient communication of brain commands to local sites and therefore the hematogenous disorders and onset of inflammation are problems caused by abnormal motions of muscles due to incomplete communication of brain commands.

The next assay deals with adrenaline secretion. The assay is described as follows: Animal experiments using mice: secretomotory action on adrenaline (blood glucose levels). The class given is in vivo. An excerpt:
No studies have been conducted on the efficacy of curcumin, zingerone, or shogaol on the stimulation of adrenaline secretion.

Turning to `C[C@H](CC[C@@H](O)C(CO)CO)C1CCC2C3C(C[C@H](O)[C@@]21C)[C@@]1(C)CC[C@@H](O)CC1C[C@H]3O` (some centres unmarked) [scymnol, Scymnol], the “effect on proctoptosia and leg, lumbus and arm aches” value in assay [1] is listed as “not significantly ameliorated”.
With `CCCCC/C=C/C(=O)CCc1ccc(O)c(OC)c1` [shogaol, (6)-shogaol], in the assay on adrenaline secretion, the “blood glucose levels (secretomotory action on adrenaline)” value is “remarkably elevated”.
Still for that read-out and setting: the result for `COc1cc(CCC(C)=O)ccc1O` [zingerone] reads “remarkably elevated”.
In the case of `COc1cc(/C=C/C(=O)/C=C(O)/C=C/c2ccc(O)c(OC)c2)ccc1O` [curcumin], in the assay on adrenaline secretion, the “blood glucose levels (secretomotory action on adrenaline)” value is recorded as “remarkably elevated”.
With `C[C@H](CCC(=O)O)[C@H]1CC[C@H]2[C@@H]3[C@H](O)C[C@@H]4C[C@H](O)CC[C@]4(C)[C@H]3C[C@H](O)[C@]12C` [cholic acid], the “effect on proctoptosia and leg, lumbus and arm aches” value in assay [1] is given as “not significantly ameliorated”.
